The subject of test [1] is T. cruzi epimastigotes, SN3 strain. Put plainly: Screening against extracellular epimastigotes, SN3 strain. The following applies: for IC50: Trypanosoma cruzi, 48 h + 24 h resazurin, read-out: Activity IC50, epimastigote form, SN3 strain; for Selectivity index (SI), epimastigotes, SN3 strain: IC50 Vero cells/IC50 epimastigotes. It is filed as cell-based, Trypanosoma cruzi. On the technique in general: The colour change of resazurin is a common sign of viable cells or microbes.

For test [2], the system named is T. cruzi epimastigotes, Tulahuen strain. Put plainly: Screening against extracellular epimastigotes, Tulahuen strain. It is filed as cell-based, Trypanosoma cruzi. The following applies: for IC50: Trypanosoma cruzi, TULAHUEN, 48 h + 24 h resazurin, read-out: Activity IC50, epimastigote form, Tulahuen strain; for Selectivity index (SI), epimastigotes, Tulahuen strain: IC50 Vero cells/IC50 epimastigotes.

Test [3] has as its system T. cruzi epimastigotes, Arequipa strain. The experiment in a line: Screening against extracellular epimastigotes, Arequipa strain. The test is classed as cell-based, Trypanosoma cruzi. The following applies: for IC50: Trypanosoma cruzi, 48 h + 24 h resazurin, read-out: Activity IC50, epimastigote form, Arequipa strain; for Selectivity index (SI), epimastigotes, Arequipa strain: IC50 Vero cells/IC50 epimastigotes.

Test [4] has as its system Vero cells. The experiment in a line: Cytotoxicity test on Vero cells. It is filed as cell-based. The following applies: Chlorocebus sabaeus, 48 h + 24 h resazurin, read-out: Toxicity IC50 Vero cell.

Results on 34 compounds are retold here after article PMC8480776, “Selenium Derivatives as Promising Therapy for Chagas Disease: In Vitro and In Vivo Studies” (ACS Infectious Diseases, 2021).

A value given as a limit tells only on which side of the number the result lay.

`O=C(Nc1ccc([Se][Se]c2ccc(NC(=O)c3ccccc3)cc2)cc1)c1ccccc1` [Compound 1]: the half-maximal inhibitory concentration (IC50) in test [1], in test [2] and in test [3] was over 50 µM in each case. In test [4], the CC50 is 800 ± 44 µM.
With `O=C(Nc1ccc([Se][Se]c2ccc(NC(=O)c3ccc(Cl)cc3)cc2)cc1)c1ccc(Cl)cc1` [Compound 2], the half-maximal inhibitory concentration (IC50) in test [1], in test [2] and in test [3] was over 50 µM in each case. In addition, in test [4], the CC50 was 622 ± 41.9 µM.
As to `COc1ccc(C(=O)Nc2ccc([Se][Se]c3ccc(NC(=O)c4ccc(OC)cc4)cc3)cc2)cc1` [Compound 3], the IC50 in test [1], in test [2] and in test [3] was over 50 µM throughout. For the same compound, the CC50 in test [4] was determined as 252 ± 21.6 µM.
As to `N#Cc1ccc(C(=O)Nc2ccc([Se][Se]c3ccc(NC(=O)c4ccc(C#N)cc4)cc3)cc2)cc1` [Compound 4], the concentration for half-maximal inhibition (IC50) in test [1], in test [2] and in test [3] was over 50 µM in each case. For the same compound, in test [4], the CC50 was 280 ± 34.2 µM.
In the case of `O=C(Nc1ccc([Se][Se]c2ccc(NC(=O)c3ccc([N+](=O)[O-])cc3)cc2)cc1)c1ccc([N+](=O)[O-])cc1` [Compound 5], the IC50 in test [1], in test [2] and in test [3] was over 50 µM throughout. Further, in test [4], the CC50 is 552 ± 43.1 µM.
Take `O=C(Nc1ccc([Se][Se]c2ccc(NC(=O)c3ccc(C(F)(F)F)cc3)cc2)cc1)c1ccc(C(F)(F)F)cc1` [Compound 6]: the IC50 in test [1], in test [2] and in test [3] was over 50 µM each time. For the same compound, the CC50 in test [4] is 536 ± 39.2 µM.
Consider `Cc1ccc(C(=O)Nc2ccc([Se][Se]c3ccc(NC(=O)c4ccc(C)cc4)cc3)cc2)cc1` [Compound 7], for which the IC50 in test [1], in test [2] and in test [3] was over 50 µM each time. The CC50 in test [4] stood at 341 ± 28.3 µM.
On to `O=C(Nc1ccc([Se][Se]c2ccc(NC(=O)c3ccco3)cc2)cc1)c1ccco1` [Compound 8], for which the 50% inhibitory concentration (IC50) in test [1], in test [2] and in test [3] was over 50 µM throughout. Further, the CC50 in test [4] was determined as 1250 ± 97.7 µM.
For `O=C(Nc1ccc([Se][Se]c2ccc(NC(=O)c3cccs3)cc2)cc1)c1cccs1` [Compound 9], the IC50 was 48 ± 6.4 µM in test [1], over 50 µM in test [2] and over 50 µM in test [3]. Also, the CC50 in test [4] is under 50 µM.
With `O=C(Nc1ccc([Se][Se]c2ccc(NC(=O)c3ccno3)cc2)cc1)c1ccno1` [Compound 10], the IC50 in test [1], in test [2] and in test [3] was over 50 µM each time. In test [4], the CC50 turned out to be 212 ± 18.7 µM.
Turning to `O=C(Nc1ccc([Se][Se]c2ccc(NC(=O)C34CC5CC(CC(C5)C3)C4)cc2)cc1)C12CC3CC(CC(C3)C1)C2` [Compound 11], the IC50 in test [1], in test [2] and in test [3] was over 50 µM each time. For the same compound, the CC50 in test [4] was 226 ± 19.1 µM.
On to `O=C(/C=C/c1ccccc1)Nc1ccc([Se][Se]c2ccc(NC(=O)/C=C/c3ccccc3)cc2)cc1` [Compound 12], for which the IC50 in test [1], in test [2] and in test [3] was over 50 µM in each case. Moreover, the CC50 in test [4] stood at 280 ± 24.4 µM.
Consider `O=C(Nc1ccc([Se][Se]c2ccc(NC(=O)c3cccc4ccccc34)cc2)cc1)c1cccc2ccccc12` [Compound 13], for which the IC50 in test [1], in test [2] and in test [3] was over 50 µM in each case. Also, the CC50 in test [4] worked out at 98.2 ± 12.8 µM.
`CSc1ccc(C(=O)Nc2ccc([Se][Se]c3ccc(NC(=O)c4ccc(SC)cc4)cc3)cc2)cc1` [Compound 14]: the IC50 in test [1], in test [2] and in test [3] was over 50 µM in each case. Moreover, in test [4], the CC50 is 407 ± 17.8 µM.
As to `COP(=O)(Nc1ccc([Se][Se]c2ccc(NP(=O)(OC)OC)cc2)cc1)OC` [Compound 15], the IC50 in test [1] came to 12.5 ± 1.1 µM; in test [2], 14.4 ± 1.7 µM; in test [3], 19.6 ± 2 µM. Also, the CC50 in test [4] is under 50 µM.
With `O=P(Nc1ccc([Se][Se]c2ccc(NP(=O)(Oc3ccccc3)Oc3ccccc3)cc2)cc1)(Oc1ccccc1)Oc1ccccc1` [Compound 16], the IC50 in test [1], in test [2] and in test [3] was over 50 µM in each case. The CC50 in test [4] worked out at 147 ± 11.4 µM.
In the case of `CCOP(=O)(Nc1ccc([Se][Se]c2ccc(NP(=O)(OCC)OCC)cc2)cc1)OCC` [Compound 17], the IC50 in test [1], in test [2] and in test [3] was over 50 µM each time. The CC50 in test [4] was 183 ± 20 µM.
For the compound `CCOP(=S)(Nc1ccc([Se][Se]c2ccc(NP(=S)(OCC)OCC)cc2)cc1)OCC` [Compound 18], the IC50 in test [1], in test [2] and in test [3] was over 50 µM throughout. The CC50 in test [4] is 182 ± 14.3 µM.
In the case of `O=P(Nc1ccccc1)(Nc1ccc([Se][Se]c2ccc(NP(=O)(Nc3ccccc3)Oc3ccccc3)cc2)cc1)Oc1ccccc1` (stereo not shown) [Compound 19], the half-inhibitory concentration (IC50) in test [1], in test [2] and in test [3] was over 50 µM in each case. For the same compound, the CC50 in test [4] was under 50 µM.
`Cc1ccc(OP(=O)(Nc2ccc([Se][Se]c3ccc(NP(=O)(Oc4ccc(C)cc4)Oc4ccc(C)cc4)cc3)cc2)Oc2ccc(C)cc2)cc1` [Compound 20]: the IC50 in test [1], in test [2] and in test [3] was over 50 µM throughout. Besides, in test [4], the CC50 is under 50 µM.
For `N#C[Se]c1ccc(NC(=O)c2ccccc2)cc1` [Compound 21], the values for the IC50 in test [1], in test [2] and in test [3] were 37.1 ± 4.6 µM, over 50 µM and over 50 µM, respectively. Besides, in test [4], the CC50 was under 50 µM.
Consider `N#C[Se]c1ccc(NC(=O)c2ccc(Cl)cc2)cc1` [Compound 22], for which the IC50 turned out to be 5.4 ± 0.7 µM in test [1], 19.4 ± 1.4 µM in test [2] and 36.2 ± 2.8 µM in test [3]. Besides, in test [4], the CC50 was under 50 µM.
Turning to `COc1ccc(C(=O)Nc2ccc([Se]C#N)cc2)cc1` [Compound 23], the concentration for half-maximal inhibition (IC50) in test [1] was determined as 4.1 ± 0.4 µM; in test [2], 17.6 ± 2.5 µM; in test [3] it was 34.5 ± 2.7 µM. Further, the CC50 in test [4] is under 50 µM.
With `N#C[Se]c1ccc(NC(=O)c2ccc(C#N)cc2)cc1` [Compound 24], in test [1], the “Selectivity index (SI), epimastigotes, SN3 strain” value (“Selectivity index … SN3 strain” for short) is given as 7 and the IC50 came out at 9.8 ± 1.2 µM. Moreover, in test [2], the “Selectivity index (SI), epimastigotes, Tulahuen strain” value (“Selectivity index … Tulahuen strain” for short) was determined as 5 and the 50% inhibitory concentration (IC50) turned out to be 15.4 ± 2.1 µM. For the same compound, in test [3], the “Selectivity index (SI), epimastigotes, Arequipa strain” value (from here on “Selectivity index … Arequipa strain”) turned out to be 2 and the IC50 was 30.5 ± 1.9 µM. Moreover, in test [4], the CC50 stood at 70.8 ± 5.4 µM.
For `Cc1ccc(C(=O)Nc2ccc([Se]C#N)cc2)cc1` [Compound 27], the concentration for half-maximal inhibition (IC50) in test [1] was 4.2 ± 0.3 µM; in test [2], 4.9 ± 0.3 µM; in test [3] it was 4.5 ± 0.7 µM. Further, in test [4], the CC50 is under 50 µM.
`N#C[Se]c1ccc(NC(=O)c2ccno2)cc1` [Compound 30]: in test [1], the “Selectivity index … SN3 strain” value is 4 and the IC50 amounted to 24.1 ± 2.3 µM. Also, in test [2], the “Selectivity index … Tulahuen strain” value turned out to be 6 and the half-maximal inhibitory concentration (IC50) amounted to 15.3 ± 1.1 µM. In addition, in test [3], the “Selectivity index … Arequipa strain” value is reported as 9 and the IC50 was 9.8 ± 1 µM. The CC50 in test [4] stood at 86 ± 6.7 µM.
As for `N#C[Se]c1ccc(NC(=O)C23CC4CC(CC(C4)C2)C3)cc1` [Compound 31], the 50% inhibitory concentration (IC50) amounted to 12.5 ± 1.6 µM in test [1], 8.1 ± 0.9 µM in test [2] and 4.6 ± 0.5 µM in test [3]. Moreover, the CC50 in test [4] is under 50 µM.
Take `N#C[Se]c1ccc(NC(=O)/C=C/c2ccccc2)cc1` [Compound 32]: the IC50 in test [1] came out at 4.8 ± 0.8 µM; in test [2], 7.9 ± 0.5 µM; in test [3], 7.4 ± 0.9 µM. Besides, in test [4], the CC50 was under 50 µM.
With `CSc1ccc(C(=O)Nc2ccc([Se]C#N)cc2)cc1` [Compound 34], in test [1], the “Selectivity index … SN3 strain” value was found to be 3 and the IC50 came out at 21 ± 2.7 µM. In test [2], the “Selectivity index … Tulahuen strain” value is 2 and the half-inhibitory concentration (IC50) came to 29.1 ± 3.1 µM. In addition, in test [3], the “Selectivity index … Arequipa strain” value stood at 4 and the IC50 worked out at 16.4 ± 2 µM. For the same compound, in test [4], the CC50 turned out to be 72.6 ± 9.9 µM.
As for `COP(=O)(Nc1ccc([Se]C#N)cc1)OC` [Compound 36], the values for the concentration for half-maximal inhibition (IC50) in test [1], in test [2] and in test [3] were 4.3 ± 0.7 µM, 18.4 ± 1.4 µM and 28.1 ± 3.2 µM, respectively. For the same compound, the CC50 in test [4] was under 50 µM.
For `N#C[Se]c1ccc(NP(=O)(Oc2ccccc2)Oc2ccccc2)cc1` [Compound 37], in that order: 30.3 ± 3.2 µM, 22.3 ± 3 µM, 20.1 ± 2.8 µM and under 50 µM.
For `CCOP(=O)(Nc1ccc([Se]C#N)cc1)OCC` [Compound 38], in that order: over 50 µM, over 50 µM, over 50 µM and under 50 µM.
Take `N#C[Se]c1ccc(NP(=O)(Nc2ccccc2)Oc2ccccc2)cc1` (stereo not shown) [Compound 40]: the values for the 50% inhibitory concentration (IC50) in test [1], in test [2] and in test [3] were over 50 µM, over 50 µM and 41.1 ± 4.4 µM, respectively. Besides, in test [4], the CC50 was under 50 µM.
As to `Cc1ccc(OP(=O)(Nc2ccc([Se]C#N)cc2)Oc2ccc(C)cc2)cc1` [Compound 41], the 50% inhibitory concentration (IC50) in test [1] is 43.2 ± 5.3 µM; in test [2], 29.9 ± 2.1 µM; in test [3], over 50 µM. In addition, the CC50 in test [4] is under 50 µM.

The term IC50 denotes the point on the concentration scale where inhibition reaches its midpoint.
